Assay results taken from ChEMBL document CHEMBL1201862, “PubChem BioAssay data set” (2004).
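Cultured in 96-well plates, cells were exposed to test compound for 48 hours across five concentrations. The concentration for 50% growth inhibition is given as GI50.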 Active and inactive are the calls of the source. Rule as the data show it: active = GI50 up to about 1.1 µM and inactive = higher.

Key:
Experiment in all cases: NCI tumour cell line growth inhibition, 48 h
786-0 = test system: 786-0
A498 = test system: A498
A549 = test system: A549
ACHN = test system: ACHN
BT-549 = test system: BT-549
CCRF-CEM = test system: CCRF-CEM
COLO 205 = test system: COLO 205
DU-145 = test system: DU-145
EKVX = test system: EKVX
HCC 2998 = test system: HCC 2998
HCT-116 = test system: HCT-116
HCT-15 = test system: HCT-15
HL-60 = test system: HL-60
HOP-62 = test system: HOP-62
HOP-92 = test system: HOP-92
HT-29 = test system: HT-29
Hs-578T = test system: Hs-578T
IGROV-1 = test system: IGROV-1
K562 = test system: K562
KM12 = test system: KM12
M14 = test system: M14
MCF7 = test system: MCF7
MDA-MB-231 = test system: MDA-MB-231
MDA-MB-435 = test system: MDA-MB-435
MDA-N = test system: MDA-N
MOLT-4 = test system: MOLT-4
Malme-3M = test system: Malme-3M
NCI-H226 = test system: NCI-H226
NCI-H23 = test system: NCI-H23
NCI-H460 = test system: NCI-H460
NCI-H522 = test system: NCI-H522
NCI/ADR-RES = test system: NCI/ADR-RES
OVCAR-3 = test system: OVCAR-3
OVCAR-4 = test system: OVCAR-4
OVCAR-5 = test system: OVCAR-5
OVCAR-8 = test system: OVCAR-8
PC-3 = test system: PC-3
RPMI-8226 = test system: RPMI-8226
RXF 393 = test system: RXF 393
SF-268 = test system: SF-268
SF-295 = test system: SF-295
SF-539 = test system: SF-539
SK-MEL-28 = test system: SK-MEL-28
SK-MEL-2 = test system: SK-MEL-2
SK-MEL-5 = test system: SK-MEL-5
SK-OV-3 = test system: SK-OV-3
SN12C = test system: SN12C
SNB-19 = test system: SNB-19
SNB-75 = test system: SNB-75
SW-620 = test system: SW-620
T47D = test system: T47D
TK-10 = test system: TK-10
U-251 = test system: U-251
UACC-257 = test system: UACC-257
UACC-62 = test system: UACC-62
UO-31 = test system: UO-31

Question: Which results are given for `CCN1CSC(=S)N(CC)C1`?
Answer: GI50 (786-0): 28.6 µM (inactive); GI50 (A498): 27.8 µM (inactive); GI50 (A549): > 100 µM (inactive); GI50 (ACHN): > 100 µM (inactive); GI50 (BT-549): > 100 µM (inactive); GI50 (CCRF-CEM): 71.6 µM (inactive); GI50 (COLO 205): 54.8 µM (inactive); GI50 (DU-145): > 100 µM (inactive); GI50 (EKVX): > 100 µM (inactive); GI50 (HCC 2998): > 100 µM (inactive); GI50 (HCT-116): 41.3 µM (inactive); GI50 (HCT-15): 73.3 µM; GI50 (HL-60): 15 µM (inactive); GI50 (HOP-62): 24 µM (inactive); GI50 (HOP-92): > 100 µM (inactive); GI50 (HT-29): 41.1 µM (inactive); GI50 (Hs-578T): > 100 µM (inactive); GI50 (IGROV-1): 75.3 µM (inactive); GI50 (K562): > 100 µM (inactive); GI50 (KM12): 98.2 µM (inactive); GI50 (M14): 50.6 µM (inactive); GI50 (MCF7): 41 µM (inactive); GI50 (MDA-MB-231): 19.5 µM (inactive); GI50 (MDA-MB-435): 46.8 µM (inactive); GI50 (MDA-N): 79.8 µM (inactive); GI50 (MOLT-4): 34.4 µM (inactive); GI50 (Malme-3M): 52.7 µM (inactive); GI50 (NCI-H226): > 100 µM (inactive); GI50 (NCI-H23): 48.3 µM (inactive); GI50 (NCI-H460): 56.2 µM (inactive); GI50 (NCI-H522): 22.6 µM (inactive); GI50 (NCI/ADR-RES): > 100 µM (inactive); GI50 (OVCAR-3): 37.8 µM (inactive); GI50 (OVCAR-4): > 100 µM (inactive); GI50 (OVCAR-5): > 100 µM (inactive); GI50 (OVCAR-8): 98.4 µM (inactive); GI50 (PC-3): > 100 µM (inactive); GI50 (RPMI-8226): 50.9 µM (inactive); GI50 (RXF 393): > 100 µM (inactive); GI50 (SF-268): > 100 µM (inactive); GI50 (SF-295): > 100 µM (inactive); GI50 (SF-539): 27.7 µM (inactive); GI50 (SK-MEL-28): > 100 µM (inactive); GI50 (SK-MEL-2): > 100 µM (inactive); GI50 (SK-MEL-5): 76.9 µM (inactive); GI50 (SK-OV-3): > 100 µM (inactive); GI50 (SN12C): > 100 µM (inactive); GI50 (SNB-19): > 100 µM (inactive); GI50 (SNB-75): 44.2 µM (inactive); GI50 (SW-620): 36.6 µM (inactive); GI50 (T47D): > 100 µM (inactive); GI50 (TK-10): > 100 µM (inactive); GI50 (U-251): 50.8 µM (inactive); GI50 (UACC-257): > 100 µM (inactive); GI50 (UACC-62): 38.8 µM (inactive); GI50 (UO-31): > 100 µM (inactive)
